{"source": "patent US11834496B2", "about": "“Composition of a drug carrier, pharmaceutical composition thereof, preparation method and use method thereof” (EOS BIOMATERIALS INC., priority 2020, dated 2023)", "test": "Drug release rate test of pharmaceutical composition (dialysis bag in PBS, HPLC)", "type": "physicochemical", "conditions": "37° C.; for drug release rate: gentamicin 50 mg, 200 ml PBS", "protocol": "In this test, a total of 3 ml solutions of the first and second mixtures (the weight ratio of sodium alginate:tricalcium phosphate:methylcellulose:sodium hyaluronate:calcium chloride was 36:36:15:80:20) and 50 mg of gentamicin were mixed to prepare a pharmaceutical composition containing gentamicin to be an experimental group. Then, the pharmaceutical composition containing gentamicin was placed in a dialysis bag. At the same time, 50 mg of gentamicin was dissolved in 3 ml of water as a control group.\nNext, two 500 ml beaker were respectively added with 200 ml of phosphate buffered saline (PBS) solution. The prepared solutions of the experimental group and control group were respectively placed in dialysis bags, which were then placed in the PBS solutions. After that, the beakers, containing the dialysis bag and the PBS solution, were slightly shaken at 37° C. to allow the release of the drug from the dialysis bag to the PBS solution. In the drug release period, the PBS solution of the experimental and control groups are sampled at 15 minutes, 30 minutes, 45 minutes, 60 minutes, 75 minutes, 90 minutes, 105 minutes, 120 minutes, 150 minutes, 180 minutes, 1 day, 2 days, 3 days, 4 days, 5 days, 6 days, and 7 days, from the time start shaking. The sampled volume of the PBS solutions in beakers was 1 mL, and 1 mL of fresh PBS solution was added back to the sampled beakers. The concentrations of the gentamicin released in the PBS solution from the dialysis bag were analyzed by high performance liquid chromatography (HPLC).", "data": [{"substance": "gentamicin", "values": [{"measurement": "cumulative release amount of the gentamicin released in the PBS solution", "setting": "PBS, in less than 30 hours", "value": "~100", "unit": "%"}, {"measurement": "drug release rate", "setting": "within 180 hours, relative to experimental group", "value": "much faster"}, {"measurement": "drug release rate", "setting": "within the first 3 hours", "value": "much faster"}]}]}
